ChEMBL document CHEMBL4177740, “Selective inhibition of β-N-acetylhexosaminidases by thioglycosyl-naphthalimide hybrid molecules” (Bioorg Med Chem, 2018)

Legend:
[1] = target: T1, Protein O-GlcNAcase (Homo sapiens) (UniProt O60502); experiment: Inhibition of recombinant human OGA expressed in Escherichia coli BL21(DE3) at 100 uM using 4-MU-GlcNAc as substrate measured after 30 mins by fluorescence assay relative to control
T1 sequence (whole entry): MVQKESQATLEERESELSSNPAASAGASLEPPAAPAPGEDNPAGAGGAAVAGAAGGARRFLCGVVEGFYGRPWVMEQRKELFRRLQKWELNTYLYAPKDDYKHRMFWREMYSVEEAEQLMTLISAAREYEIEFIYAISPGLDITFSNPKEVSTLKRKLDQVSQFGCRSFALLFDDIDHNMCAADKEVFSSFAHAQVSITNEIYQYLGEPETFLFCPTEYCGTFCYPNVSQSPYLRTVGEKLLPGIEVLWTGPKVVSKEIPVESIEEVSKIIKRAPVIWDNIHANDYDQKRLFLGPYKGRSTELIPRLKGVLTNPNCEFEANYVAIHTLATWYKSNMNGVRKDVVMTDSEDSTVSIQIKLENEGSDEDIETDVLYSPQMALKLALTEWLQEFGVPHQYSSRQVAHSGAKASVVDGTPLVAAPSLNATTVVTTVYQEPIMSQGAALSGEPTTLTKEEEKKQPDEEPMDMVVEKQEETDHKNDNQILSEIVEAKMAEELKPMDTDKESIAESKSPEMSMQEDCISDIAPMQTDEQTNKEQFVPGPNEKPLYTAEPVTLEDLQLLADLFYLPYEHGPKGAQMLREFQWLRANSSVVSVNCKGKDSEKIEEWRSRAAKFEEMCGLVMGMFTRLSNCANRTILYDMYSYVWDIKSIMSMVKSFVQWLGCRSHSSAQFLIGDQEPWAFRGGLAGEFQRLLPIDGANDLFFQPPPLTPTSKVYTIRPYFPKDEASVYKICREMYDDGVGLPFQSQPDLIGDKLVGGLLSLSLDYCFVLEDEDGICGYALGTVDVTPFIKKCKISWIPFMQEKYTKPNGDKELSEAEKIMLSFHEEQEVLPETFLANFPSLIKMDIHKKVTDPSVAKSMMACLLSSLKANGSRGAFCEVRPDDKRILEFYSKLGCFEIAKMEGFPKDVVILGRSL

[2] = target: T2, Chitooligosaccharidolytic beta-N-acetylglucosaminidase (Ostrinia furnacalis) (UniProt Q06GJ0); experiment: Inhibition of Ostrinia furnacalis Hex1 expressed in Pichia pastoris at 100 uM using 4-MU-GlcNAc as substrate measured after 30 mins by fluorescence assay relative to control
T2 sequence (whole entry): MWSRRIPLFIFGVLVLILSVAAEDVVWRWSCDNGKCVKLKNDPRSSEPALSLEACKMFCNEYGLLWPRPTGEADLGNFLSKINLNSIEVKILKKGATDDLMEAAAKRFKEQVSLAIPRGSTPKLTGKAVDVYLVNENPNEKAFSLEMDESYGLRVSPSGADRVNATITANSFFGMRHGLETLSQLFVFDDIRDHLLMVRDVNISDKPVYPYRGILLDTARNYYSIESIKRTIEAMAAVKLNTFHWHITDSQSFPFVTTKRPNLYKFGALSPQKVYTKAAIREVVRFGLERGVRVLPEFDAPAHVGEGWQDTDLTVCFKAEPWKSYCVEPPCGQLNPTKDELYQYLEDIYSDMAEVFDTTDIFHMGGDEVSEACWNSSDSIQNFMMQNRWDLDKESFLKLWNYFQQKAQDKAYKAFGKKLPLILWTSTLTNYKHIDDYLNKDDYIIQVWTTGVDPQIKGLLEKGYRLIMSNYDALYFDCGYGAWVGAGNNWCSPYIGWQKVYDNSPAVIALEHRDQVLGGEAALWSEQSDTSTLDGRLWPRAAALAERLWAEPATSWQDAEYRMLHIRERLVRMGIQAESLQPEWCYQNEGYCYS

[3] = target: T3, Protein O-GlcNAcase (Homo sapiens, UniProt O60502); experiment: Inhibition of recombinant human OGA expressed in Escherichia coli BL21(DE3) using varying levels of 4-MU-GlcNAc as substrate measured after 30 mins by fluorescence assay
T3 sequence (O60502 whole entry): T1 sequence (whole entry)

[4] = target: T4, Chitooligosaccharidolytic beta-N-acetylglucosaminidase (Ostrinia furnacalis, UniProt Q06GJ0); experiment: Inhibition of Ostrinia furnacalis Hex1 expressed in Pichia pastoris using varying levels of 4-MU-GlcNAc as substrate measured after 30 mins by fluorescence assay
T4 sequence (Q06GJ0 whole entry): T2 sequence (whole entry)

[5] = target: T1, Protein O-GlcNAcase (Homo sapiens); experiment: Inhibition of recombinant human OGA expressed in Escherichia coli BL21(DE3) at 200 uM using 4-MU-GlcNAc as substrate measured after 30 mins by fluorescence assay relative to control
[6] = target: T2, Chitooligosaccharidolytic beta-N-acetylglucosaminidase (Ostrinia furnacalis); experiment: Inhibition of Ostrinia furnacalis Hex1 expressed in Pichia pastoris at 200 uM using varying levels of 4-MU-GlcNAc as substrate measured after 30 mins by fluorescence assay relative to control

Structure (SMILES) | inhibition [1] [%] | inhibition [2] [%] | Ki [3] [µM] | Ki [4] [µM] | inhibition [5] [%] | inhibition [6] [%]
CC(=O)N[C@@H]1[C@@H](O)[C@H](O)[C@@H](CO)O[C@H]1S | 12 | 0 | – | – | – | –
CC(=O)N[C@@H]1[C@@H](O)[C@H](O)[C@@H](CO)O[C@H]1SCCn1cc(CN2C(=O)c3cccc4cccc(c34)C2=O)nn1 | 27.8 | 84 | – | – | – | –
NN1C(=O)c2cccc3cccc(c23)C1=O | 22.2 | 28.1 | – | – | – | –
CC(=O)N[C@@H]1[C@@H](O)[C@H](O)[C@@H](CO)O[C@H]1SCCCCCCn1cc(CN2C(=O)c3cccc4cccc(c34)C2=O)nn1 | 25.7 | 93.2 | > 200 | 21.8 | < 50 | –
CC(=O)N[C@H]1/C(=N/OC(=O)Nc2ccccc2)O[C@H](CO)[C@@H](O)[C@@H]1O | 98.9 | 97.5 | – | – | – | –
CC(=O)N[C@@H]1[C@@H](O)[C@H](O)[C@@H](CO)O[C@H]1SCCCCCn1cc(CN2C(=O)c3cccc4cccc(c34)C2=O)nn1 | 26 | 91.9 | – | – | – | –
CC(=O)N[C@@H]1[C@@H](O)[C@H](O)[C@@H](CO)O[C@H]1SCn1cc(CN2C(=O)c3cccc4cccc(c34)C2=O)nn1 | 18.5 | 17.9 | – | – | – | –
CC(=O)N[C@@H]1[C@@H](O)[C@H](O)[C@@H](CO)O[C@H]1SCCCn1cc(CN2C(=O)c3cccc4cccc(c34)C2=O)nn1 | 22.7 | 81.6 | – | – | – | –

Second part, the molecule after the results:

inhibition [1] [%] | inhibition [2] [%] | Ki [3] [µM] | Ki [4] [µM] | inhibition [5] [%] | inhibition [6] [%] | Structure (SMILES)
59.4 | 25.3 | – | – | – | – | CC(=O)N[C@@H]1[C@@H](O)[C@H](O)[C@@H](CO)O[C@H]1SCCC(=O)NCCCN1C(=O)c2cccc3cccc(c23)C1=O
31.1 | 24.9 | – | – | – | – | CC(=O)N[C@@H]1[C@@H](O)[C@H](O)[C@@H](CO)O[C@H]1SCC(=O)NN1C(=O)c2cccc3cccc(c23)C1=O
97.6 | 29.2 | – | > 200 | – | < 50 | CC(=O)N[C@@H]1[C@@H](O)[C@H](O)[C@@H](CO)O[C@H]1SCC(=O)NCCCN1C(=O)c2cccc3cccc(c23)C1=O
50 | 29.1 | – | – | – | – | CC(=O)N[C@@H]1[C@@H](O)[C@H](O)[C@@H](CO)O[C@H]1SCC(=O)NCCCCN1C(=O)c2cccc3cccc(c23)C1=O
66.9 | 25.8 | – | – | – | – | CC(=O)N[C@@H]1[C@@H](O)[C@H](O)[C@@H](CO)O[C@H]1SCCC(=O)NCCN1C(=O)c2cccc3cccc(c23)C1=O
38.6 | 18.4 | – | – | – | – | CC(=O)N[C@@H]1[C@@H](O)[C@H](O)[C@@H](CO)O[C@H]1SCC(=O)NCCN1C(=O)c2cccc3cccc(c23)C1=O
34.3 | 26.9 | – | – | – | – | CC(=O)N[C@@H]1[C@@H](O)[C@H](O)[C@@H](CO)O[C@H]1SCCC(=O)NCCCCN1C(=O)c2cccc3cccc(c23)C1=O
25.1 | 89.9 | – | – | – | – | CC(=O)N[C@@H]1[C@@H](O)[C@H](O)[C@@H](CO)O[C@H]1SCCCCn1cc(CN2C(=O)c3cccc4cccc(c34)C2=O)nn1
